Test results published in patent US9682995B2, “Amino-substituted isothiazoles” (BAYER PHARMA AKTIENGESELLSCHAFT, priority 2013, dated 2017).

Columns and labels:
[1] = system: HeLa; experiment: Proliferation assay (crystal violet), HeLa; assay type: cell-based; conditions: Homo sapiens, 96 h, 4 days, read-out: Inhibition of proliferation IC50 HeLa
Description: Cultivated tumor cells (cells were ordered from ATCC, except HeLa-MaTu and HeLa-MaTu-ADR, which were ordered from EPO-GmbH, Berlin) were plated at a density of 1000 to 5000 cells/well, depending on the growth rate of the respective cell line, in a 96-well multititer plate in 200 μL of their respective growth medium supplemented 10% fetal calf serum. After 24 hours, the cells of one plate (zero-point plate) were stained with crystal violet (see below), while the medium of the other plates was replaced by fresh culture medium (200 μl), to which the test substances were added in various concentrations (0 μM, as well as in the range of 0.001-10 μM; the final concentration of the solvent dimethyl sulfoxide was 0.5%). The cells were incubated for 4 days in the presence of test substances. Cell proliferation was determined by staining the cells with crystal violet: the cells were fixed by adding 20 μl/measuring point of an 11% glutaric aldehyde solution for 15 minutes at room temperature. After three washing cycles of the fixed cells with water, the plates were dried at room temperature. The cells were stained by adding 100 μl/measuring point of a 0.1% crystal violet solution (pH 3.0). After three washing cycles of the stained cells with water, the plates were dried at room temperature. The dye was dissolved by adding 100 μl/measuring point of a 10% acetic acid solution. Absorption was determined by photometry at a wavelength of 595 nm. The change of cell number, in percent, was calculated by normalization of the measured values to the absorption values of the zero-point plate (=0%) and the absorption of the untreated (0 μm) cells (=100%). The IC50 values were determined by means of a 4 parameter fit.

[2] = system: spindle assembly checkpoint; experiment: SAC-Formation - Nocodazole-Induced Assay; assay type: cell-based; conditions: Homo sapiens; HeLa cells, nocodazole 0.1 μg/ml, 24 h, phosphorylated histone H3 on serine 10
Text: The spindle assembly checkpoint assures the proper segregation of chromosomes during mitosis. Upon entry into mitosis, chromosomes begin to condensate which is accompanied by the phosphorylation of histone H3 on serine 10. Dephosphorylation of histone H3 on serine 10 begins in anaphase and ends at early telophase. Accordingly, phosphorylation of histone H3 on serine 10 can be utilized as a marker of cells in mitosis. Nocodazole is a microtubule destabilizing substance. Paclitaxel is a microtubule stabilizing compound. Thus, nocodazole as well as paclitaxel interfere with microtubule dynamics and mobilize the spindle assembly checkpoint. […] The mitotic breakthrough can be detected by the decrease of cells with phosphorylation of histone H3 on serine 10. This decline is used as a marker to determine the capability of compounds of the present invention to induce a mitotic breakthrough. The typical morphological alteration of nuclei with a prematurely completed mitosis after SAC-inhibition can be monitored via image analysis routines supporting those findings.
The nocodazole and paclitaxel variations were used to focus on compounds that are capable of inhibiting a SAC induced by both microtubule destabilization as well as microtubule stabilization. When SAC inducing agents and compounds are given simultaneously, inhibitors that effectively block the SAC during formation or abrogation are identified. When cells are incubated with a SAC inducing agent and the SAC interfering compound is given after a defined time, inhibitors are identified that effectively block SAC abrogation.
Cultivated cells of the human cervical tumor cell line HeLa (ATCC CCL-2) were plated at a density of 1000 cells/well in a 1536-well microtiter plate in 2 μl PAA Ham's F12 Medium supplemented with 1% (v/v) glutamine, 1% (v/v) penicillin, 1% (v/v) streptomycin and 10% (v/v) fetal calf serum. After incubation overnight at 37° C., 10 μl/well nocodazole at a final concentration of 0.1 μg/ml were added to cells. Test compounds solubilized in dimethyl sulfoxide (DMSO) were added at various concentrations (0 μM, as well as in the range of 0.005 μM-20 μM; the final concentration of the solvent DMSO was 0.5% (v/v)). Cells were incubated for 24 h at 37° C. in the presence of test compounds in combination with nocodazole. Thereafter, cells were fixed in 4% (v/v) paraformaldehyde in phosphate buffered saline (PBS) at 4° C. overnight then permeabilized in 0.1% (v/v) Triton X™ 100 in PBS at room temperature for 20 min and blocked in 0.5% (v/v) bovine serum albumin (BSA) in PBS at room temperature for 15 min. After washing with PBS, 5 μl/well antibody solution (anti-phospho-histone H3 clone 3H10, FITC; Millipore, Cat #16-222; 1:1000 dilution) was added to cells, which were incubated for 2 h at room temperature. Afterwards, cells were washed with PBS and 5 μl/well solution of HOECHST 33342 dye (5 μg/ml) was added to cells and cells were incubated 15 min at room temperature in the dark. Cells were washed twice with PBS then covered with PBS and stored at 4° C. until analysis. Images were acquired with a PERKIN ELMER OPERA™ High-Content Analysis reader. Images were analyzed with image analysis software MetaXpress™ from Molecular devices utilizing the Mitotic Index application module. In this assay both labels HOECHST 33342 and phosphorylated Histone H3 on serine 10 were measured. HOECHST 33342 labels the DNA and is used to count the cell number. The staining of phosphorylated Histone H3 on serine 10 determines the number of mitotic cells. […] Otherwise cells were arrested at G2/M phase of the cell cycle progression. The raw assay data were further analyzed by four-parametric hill equation using Genedata's Assay Analyzer and Condoseo software.

SMILES	IC50 [1] [µM]	IC50 [2] [nM]
COc1ccc(NC(=O)c2c(C)nsc2Nc2cc(C#N)ccn2)cn1 [Example 25, 5-[(4-Cyanopyridin-2-yl)amino]-N-(6-methoxypyridin-3-yl)-3-methyl-1,2-thiazole-4-carboxamide]	> 10	2200
CCOC(=O)c1sc(Nc2snc(C)c2C(=O)Nc2ccccc2CC)nc1C [Example 26, Ethyl 2-({4-[(2-ethylphenyl)carbamoyl]-3-methyl-1,2-thiazol-5-yl}amino)-4-methyl-1,3-thiazole-5-carboxylate]	4.4	140
CCOC(=O)c1cnc(Nc2snc(C)c2C(=O)Nc2ccc(OC)nc2)s1 [Example 29, Ethyl 2-({4-[(6-methoxypyridin-3-yl)carbamoyl]-3-methyl-1,2-thiazol-5-yl}amino)-1,3-thiazole-5-carboxylate]	2.8	310
CCOC(=O)c1sc(Nc2snc(C)c2C(=O)Nc2ccc(OC)nc2)nc1C [Example 30, Ethyl 2-({4-[(6-methoxypyridin-3-yl)carbamoyl]-3-methyl-1,2-thiazol-5-yl}amino)-4-methyl-1,3-thiazole-5-carboxylate]	1.6	92
COC(=O)c1ccc(Nc2snc(C)c2C(=O)Nc2ccc(OC)nc2)nc1 [Example 31, Methyl 6-({4-[(6-methoxypyridin-3-yl)carbamoyl]-3-methyl-1,2-thiazol-5-yl}amino)-nicotinate]	> 10	5500
COC(=O)c1cnc(Nc2snc(C)c2C(=O)Nc2ccc(OC)nc2)cn1 [Example 32, Methyl 5-({4-[(6-methoxypyridin-3-yl)carbamoyl]-3-methyl-1,2-thiazol-5-yl}amino)-pyrazine-2-carboxylate]	8.3	510
CCc1ccccc1NC(=O)c1c(C)nsc1Nc1nccnc1C#N [Example 34, 5-[(3-Cyanopyrazin-2-yl)amino]-N-(2-ethylphenyl)-3-methyl-1,2-thiazole-4-carboxamide]	6.7	950
COc1ccc(NC(=O)c2c(C)nsc2Nc2ncccc2C#N)cn1 [Example 36, 5-[(3-Cyanopyridin-2-yl)amino]-N-(6-methoxypyridin-3-yl)-3-methyl-1,2-thiazole-4-carboxamide]	9.9	1600
COc1ccc(NC(=O)c2c(C)nsc2Nc2cccc(C#N)n2)cn1 [Example 37, 5-[(6-Cyanopyridin-2-yl)amino]-N-(6-methoxypyridin-3-yl)-3-methyl-1,2-thiazole-4-carboxamide]	> 10	2400
CCc1ccccc1NC(=O)c1c(C)nsc1Nc1nc(C)nc2sccc12 [Example 38, N-(2-Ethylphenyl)-3-methyl-5-[(2-methylthieno[2,3-d]pyrimidin-4-yl)amino]-1,2-thiazole-4-carboxamide]	5.3	690
COc1ccc(NC(=O)c2c(C)nsc2Nc2ccc(C#N)cn2)cn1 [Example 39, 5-[(5-Cyanopyridin-2-yl)amino]-N-(6-methoxypyridin-3-yl)-3-methyl-1,2-thiazole-4-carboxamide]	6.7	1300
COc1ccc(NC(=O)c2c(C)nsc2Nc2cnc3ccc(Cl)cc3n2)cn1 [Example 42, 5-[(7-Chloroquinoxalin-2-yl)amino]-N-(6-methoxypyridin-3-yl)-3-methyl-1,2-thiazole-4-carboxamide]	1.2	260
COc1ccc(NC(=O)c2c(C)nsc2Nc2cnc3ccc(F)cc3n2)cn1 [Example 44, 5-[(7-Fluoroquinoxalin-2-yl)amino]-N-(6-methoxypyridin-3-yl)-3-methyl-1,2-thiazole-4-carboxamide]	2.4	200
Cc1nsc(Nc2ncc(C(=O)N(C)C)s2)c1C(=O)Nc1ccc(F)c(F)c1 [Example 49, N-(3,4-Difluorophenyl)-5-{[5-(dimethylcarbamoyl)-1,3-thiazol-2-yl]amino}-3-methyl-1,2-thiazole-4-carboxamide]	4.4	350
Cc1nsc(Nc2ccn3nccc3n2)c1C(=O)Nc1ccc(F)c(F)c1 [Example 57, N-(3,4-Difluorophenyl)-3-methyl-5-(pyrazolo[1,5-a]pyrimidin-5-ylamino)-1,2-thiazole-4-carboxamide]	2.9	520
CCOC(=O)c1cnc(Nc2snc(C)c2C(=O)Nc2ccc(F)c(F)c2)o1 [Example 96, Ethyl 2-({4-[(3,4-difluorophenyl)carbamoyl]-3-methyl-1,2-thiazol-5-yl}amino)-1,3-oxazole-5-carboxylate]	10	1200
COC(=O)c1cnc(Nc2snc(C)c2C(=O)Nc2ccc(F)c(F)c2)o1 [Example 97, Methyl 2-({4-[(3,4-difluoro-phenyl)carbamoyl]-3-methyl-1,2-thiazol-5-yl}amino)-1,3-oxazole-5-carboxylate]	10	5900
CCOC(=O)c1coc(Nc2snc(C)c2C(=O)Nc2ccc(F)c(F)c2)n1 [Example 98, Ethyl 2-({4-[(3,4-difluoro-phenyl)carbamoyl]-3-methyl-1,2-thiazol-5-yl}amino)-1,3-oxazole-4-carboxylate]	10	3000
CCNC(=O)c1csc(Nc2snc(C)c2C(=O)Nc2ccc(F)c(F)c2)n1 [Example 99, N-(3,4-Difluorophenyl)-5-{[4-(ethylcarbamoyl)-1,3-thiazol-2-yl]amino}-3-methyl-1,2-thiazole-4-carboxamide]	3.3	20000
CCOC(=O)c1coc(Nc2snc(C)c2C(=O)Nc2ccc(OC)nc2)n1 [Example 100, Ethyl 2-({4-[(6-methoxypyridin-3-yl)carbamoyl]-3 methyl-1,2-thiazol-5-yl}amino)-1,3-oxazole-4-carboxylate]	10	5500
COC(=O)c1cncc(Nc2snc(C)c2C(=O)Nc2ccc(OC)nc2)n1 [Example 101, Methyl 6-({4-[(6-methoxypyridin-3-yl)carbamoyl]-3-methyl-1,2-thiazol-5-yl}amino)pyrazine-2-carboxylate]	7.2	1800
Cc1nsc(Nc2nc3c(C(F)(F)F)cccc3s2)c1C(=O)Nc1ccc(Cl)c(Cl)c1 [Example 102, N-(3,4-Dichlorophenyl)-3-methyl-5-{[4-(trifluoromethyl)-1,3-benzothiazol-2-yl]amino}-1,2-thiazole-4-carboxamide]	7.3	220
